Key:
Rodents = settings: cited from earlier work
BALB/C mice [1] = test system: BALB/C mice
Description: Experimental Methods: Ten-twelve week old female BALB/C mice are used. Mice are fed ad libitum. Each experimental group is housed in a separate cage.
Three groups of 4 mice are each fed ad libitum as follows: 1) Inventive Warfarin composition, mixed in baits at 4% Warfarin activity, 2) Unencapsulated Warfarin, mixed in baits feed at 4% activity, 3) Bait containing a composition as in Example 3, containing no Warfarin or other bioactive. The feed intake and kill effect on the mice are monitored.

BALB/C mice [2] = test: Oral administration of OVA composition to mice, immune response (ELISA IgG/IgA, ASC); type: in vivo; settings: OVA solution subcutaneously (SC), 0 and 3 weeks, read at week 4, expected
Method: Ovalbumin is orally administered to mice to test the efficacy of the inventive compositions in inducing an immune response.
Ovalbumin composition: Ovalbumin (1 mg/g of ovalbumin, Sigma, St. Louis, Mo.,) is incorporated into the inventive composition as described in Example 5. Three groups of 4 mice each are inoculated as follows: 1) ovalbumin (OVA) in the composition, administered orally, 2) OVA solution, administered subcutaneously (SC), 3) antigen free composition administered orally. Mice are inoculated at 0 and 3 weeks. Each dose administers a total 100 mg of dry composition mixed with corn oil at a ratio of 1:2 w/w of dry composition/oil, coated onto feed pellets. At week 4 each mouse is euthanized and serum and spleen cells are harvested.
Immunological assays: Serum is assayed for IgG and IgA by ELISA. ELISA is performed using OVA absorbed to polystyrene plates. Samples are placed in wells in triplicate at a 1:25 dilution for serum. […] Optical density of each well is determined by placing the plate in a microtiter plate spectrophotometer and reading the plate at 490 nm. […]
The OVA specific IgG and IgA antibodies are quantified by determining the increase in optical density over time. […] No OVA specific IgG or IgA antibodies are expected to be detected in mice fed antigen free composition.

[3] = Degradation of unprotected protein antigen (OVA) activity in simulated gastric juice; type: physicochemical; settings: simulated gastric fluid, 0.08% pepsin, pH-2, 37° C.
Method: Western Blot: the compositions were lysed with RIPA buffer as described above, and a calculated amount equivalent to 12 μg of protein per sample was loaded on a 10% SDS-polyacrylamide gradient gel (SDS-PAGE, Bio-Rad, Hercules, Calif.). Proteins were transferred onto a PVDF membrane (Bio-Rad) and blocked for 1 h with 5% non-fat milk in PBS containing 0.5% Tween-20 (PBS-T). Blots were incubated with an appropriate primary antibody at 1:5000 dilutions for 1 h at room temperature. After washing with PBS-T (3×10 mL, 5 min. each), the membranes were incubated with an appropriate HRP-conjugated secondary antibody (EMD Millipore Corporation, Billerica, Mass., USA) at 1:5000 dilution for 1 h. After washing with PBS-T (3×10 mL, 5 min. each), chemiluminescent films were developed with an ECL substrate (Amsheram Biosciences).
To evaluate the loss of activity of a protein antigen following a typical gastric exposure, non-encapsulated OVA (10 mg) was incubated in 10 ml simulated gastric fluid containing 0.08% pepsin at pH-2 for 2 h at 37° C. on a shaker. Medium was withdrawn at 15 min, 30 min, 60 min and 120 min incubation times, and the amount of residual OVA was analyzed using Western Blot analysis as described above.

[4] = rodents ingesting baits containing Warfarin

Molecule	time to recovery (Rodents; rodents after a sublethal amount of Warfarin) [h]	time to become unconscious (Rodents; [4]) [h]	time to obvious symptoms of poisoning (Rodents; [4]) [min]	kill effect on the mice (BALB/C mice [1]; after 8 h from feeding, expected)	feed intake, less than groups 1 and 3 (BALB/C mice [1]; baits at 4% Warfarin activity, ad libitum)	OVA specific serum IgA, IgG and ASC secreting cells (BALB/C mice [2])	Remaining activity (%) ([3]; 15 min, relative to pre-exposure activity)	Remaining activity (%) ([3]; 30 min)	Remaining activity (%) ([3]; 60 min)	Remaining activity (%) ([3]; 120 min)
CC(=O)CC(c1ccccc1)c1c(O)c2ccccc2oc1=O (stereo not shown) [Warfarin]	≤ 8	1 to 2	15 to 30	all group 2 mice remain alive	over 25%					
ovalbumin (protein, UniProt P01012 2-386, looked up, Ovalbumin, model vaccine / protein antigen, unprotected or as solution) Ovalbumin: GSIGAASMEFCFDVFKELKVHHANENIFYCPIAIMSALAMVYLGAKDSTRTQINKVVRFDKLPGFGDSIEAQCGTSVNVHSSLRDILNQITKPNDVYSFSLASRLYAEERYPILPEYLQCVKELYRGGLEPINFQTAADQARELINSWVESQTNGIIRNVLQPSSVDSQTAMVLVNAIVFKGLWEKAFKDEDTQAMPFRVTEQESKPVQMMYQIGLFRVASMASEKMKILELPFASGTMSMLVLLPDEVSGLEQLESIINFEKLTEWTSSNVMEERKIKVYLPRMKMEEKYNLTSVLMAMGITDVFSSSANLSGISSAESLKISQAVHAAHAEINEAGREVVGSAEAGVDAASVSEEFRADHPFLFCIKHIATNAVLFFGRCVSP						equally increased	61	55	38	2

Reference: patent publication US10272036B2, “Composition for oral delivery of bioactive agents” (priority 2013, dated 2019)
